# Assay results reported in patent US20250326771A1, “PIPERAZINE DERIVATIVES USEFUL IN HIV THERAPY” (VIIV HEALTHCARE COMPANY, priority 2022, published 2025).
# Like-named read-outs stand apart in the source and are kept apart here.
# Columns and labels:
# cIAP1-BIR2 = cIAP1-BIR2 (Homo sapiens (Human), UniProt Q13490); experiment: BIR binding assay (FRET competition), cIAP1 BIR2
# Procedure, shortened: (§1)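 His-tagged domains (50 nM cIAP1-BIR3, 325 nM cIAP2-BIR2, 325 nM cIAP1-BIR2, 100 nM XIAP-BIR3) compete with compounds for a 200 nM AlexaFluor647-labelled SMAC/DIABLO peptide in HEPES buffer, pH 7.4, for 60 min. Then 2 nM Eu-W1024 is added for 30 min. The 615/665 nm ratio is fit by four-parameter fit to give IC50.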
# cIAP1-BIR3 = cIAP1-BIR3 (Homo sapiens (Human), UniProt Q13490); experiment: BIR binding assay (FRET competition), cIAP1 BIR3; conditions: for cIAP1 BIR3 vs BIR2 separation window: fold separation (FS) for cIAP1
# Chain of cIAP1-BIR3 (Q13490 253-363): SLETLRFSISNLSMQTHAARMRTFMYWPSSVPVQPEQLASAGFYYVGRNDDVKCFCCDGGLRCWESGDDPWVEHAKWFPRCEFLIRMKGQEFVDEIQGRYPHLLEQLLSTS
# Procedure, shortened: as §1
# XIAP-BIR2 = XIAP-BIR2 (Homo sapiens (Human), UniProt P98170); experiment: BIR binding assay (FRET competition), XIAP BIR2
# Chain of XIAP-BIR2 (P98170 124-240): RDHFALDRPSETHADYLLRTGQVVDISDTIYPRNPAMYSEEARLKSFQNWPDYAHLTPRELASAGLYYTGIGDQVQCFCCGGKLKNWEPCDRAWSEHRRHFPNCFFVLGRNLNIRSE
# Procedure, shortened: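 Compounds in a 15-point, 3-fold series competed with an AlexaFluor647 SMAC peptide (AVPIAQKSE, 200 nM) for 200 nM His-tagged XIAP-BIR2 over 60 min in pH 7.4 HEPES/CHAPS/DTT buffer. Eu-W1024 (2 nM) was then added for 30 min. IC50 and pIC50 were derived from the 615 nm/665 nm emission ratio by variable-slope fit.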
# [1] = test system: Jurkat HIV-luciferase clones; experiment: Jurkat latency reversal assay; type: cell-based; conditions: Homo sapiens, 48 h; Jurkat latency reversal assay potency; read-out: Jurkat pEC50 (converted)
# Procedure, shortened: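 Compounds are titrated 3-fold over 14 points from 10 μM in duplicate at 0.5% DMSO. Clones C16, 115 and N6, grown with 500 nM EFV, are co-incubated for 48 h at 37° C. Virally driven luciferase is read by luminescence, and EC50 and maximal percent activation versus vehicle come from a four-parameter model.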
# cIAP2-BIR3 = cIAP2-BIR3 (Homo sapiens (Human), UniProt Q13489); experiment: BIR binding assay (FRET competition), cIAP2 BIR3; conditions: for cIAP2 BIR3 vs BIR2 separation window: fold separation (FS) for cIAP2
# Chain of cIAP2-BIR3 (Q13489 238-349): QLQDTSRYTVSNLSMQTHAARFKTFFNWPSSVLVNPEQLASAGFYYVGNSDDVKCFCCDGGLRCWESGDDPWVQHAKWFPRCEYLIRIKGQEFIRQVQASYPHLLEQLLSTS
# XIAP-BIR3 = XIAP-BIR3 (Homo sapiens (Human), UniProt P98170); experiment: BIR binding assay (FRET competition), XIAP BIR3; conditions: for XIAP BIR3 vs BIR2 separation window: fold separation (FS) for XIAP
# Chain of XIAP-BIR3 (P98170 241-356): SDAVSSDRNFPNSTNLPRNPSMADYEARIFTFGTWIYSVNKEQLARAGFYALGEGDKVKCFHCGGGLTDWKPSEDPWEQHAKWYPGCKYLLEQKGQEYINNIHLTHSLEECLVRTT
# Procedure, shortened: as §1
# cIAP2-BIR2 = cIAP2-BIR2 (Homo sapiens (Human), UniProt Q13489); experiment: BIR binding assay (FRET competition), cIAP2 BIR2
# Chain of cIAP2-BIR2 (Q13489 158-242): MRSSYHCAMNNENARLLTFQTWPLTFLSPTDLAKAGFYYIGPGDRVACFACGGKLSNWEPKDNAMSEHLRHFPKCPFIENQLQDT
# Procedure, shortened: as §1
# [2] = FRET competition binding, read-out: XIAP BIR2 (pIC50) (converted)
# Chain of cIAP1-BIR2 (Q13490 173-257): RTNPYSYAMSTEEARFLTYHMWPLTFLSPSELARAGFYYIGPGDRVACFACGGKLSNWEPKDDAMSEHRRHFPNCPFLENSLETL
Compound,IC50 (cIAP1-BIR2) [nM],IC50 (cIAP1-BIR3) [nM],cIAP1 BIR3 vs BIR2 separation window (cIAP1-BIR3),IC50 (XIAP-BIR2; [2]) [nM],EC50 [1] [nM],IC50 (cIAP2-BIR3) [nM],cIAP2 BIR3 vs BIR2 separation window (cIAP2-BIR3),IC50 (XIAP-BIR3) [nM],XIAP BIR3 vs BIR2 separation window (XIAP-BIR3),IC50 (cIAP2-BIR2) [nM],"IC50 (XIAP-BIR2; FRET competition, read-out: XIAP BIR2 (pIC50) (converted)) [nM]",IC50 (XIAP-BIR2) [nM]
"C[C@@H]1CN(CC(=O)N2CC(C)(C)c3c2cc(Cc2ccc(F)cc2)c(=O)n3C)[C@@H](CN2CCO[C@H](COCc3ccc(COC[C@@H]4CN(C[C@H]5CN[C@H](C)CN5CC(=O)N5CC(C)(C)c6c5cc(Cc5ccc(F)cc5)c(=O)n6C)CCO4)cc3)C2)CN1 [Example 117, 1,1′-(2,2′-((3R,3′R,6R,6′R)-(((2S,2'S)-(((1,4-phenylenebis(methylene))bis(oxy))bis(methylene))bis(morpholine-2,4-diyl))bis(methylene))bis(3-methylpiperazine-6,1-diyl))bis(acetyl))bis(6-(4-fluorobenzyl)-3,3,4-trimethyl-1,2,3,4-tetrahydro-5H-pyrrolo[3,2-b]pyridin-5-one)]",3160 to 10000,15.8 to 31.6,"+++ (10,000>FS>1,000)",10000 to 51300,63.1 to 316,15.8 to 31.6,"+++ (10,000>FS>1,000)",31.6 to 501,"++++ (FS>10,000)",3160 to 10000,,
"C[C@@H]1CN(CC(=O)N2CC(C)(C)c3[nH]c(=O)c(Cc4ccc(F)cc4)cc32)[C@@H](CN2CCO[C@H](C(=O)NCCCNC(=O)[C@@H]3CN(C[C@H]4CN[C@H](C)CN4CC(=O)N4CC(C)(C)c5[nH]c(=O)c(Cc6ccc(F)cc6)cc54)CCO3)C2)CN1 [Example 125, (2S,2'S)-N,N′-(Propane-1,3-diyl)bis(4-(((2R,5R)-1-(2-(6-(4-fluorobenzyl)-3,3-dimethyl-5-oxo-2,3,4,5-tetrahydro-1H-pyrrolo[3,2-b]pyridin-1-yl)-2-oxoethyl)-5-methylpiperazin-2-yl)methyl)morpholine-2-carboxamide)]",1000 to 3160,7.94 to 15.8,"+++ (10,000>FS>1,000)",10000 to 51300,63.1 to 316,7.94 to 15.8,"+++ (10,000>FS>1,000)",15.8 to 31.6,"++++ (FS>10,000)",3160 to 10000,,
"C[C@@H]1CN(CC(=O)N2CC(C)(C)c3[nH]c(=O)c(Cc4ccc(F)cc4)cc32)[C@@H](CN2CCN(C(=O)CN(C)CC(=O)N3CCN(C[C@H]4CN[C@H](C)CN4CC(=O)N4CC(C)(C)c5[nH]c(=O)c(Cc6ccc(F)cc6)cc54)[C@H](C)C3)C[C@H]2C)CN1 [Example 15, 1,1′-(2,2′-((3R,3′R,6R,6′R)-(((2R,2′R)-(2,2′-(methylazanediyl)bis(acetyl))bis(2-methylpiperazine-4,1-diyl))bis(methylene))bis(3-methylpiperazine-6,1-diyl))bis(acetyl))bis(6-(4-fluorobenzyl)-3,3-dimethyl-1,2,3,4-tetrahydro-5H-pyrrolo[3,2-b]pyridin-5-one)]",22.4 to 1000,1.38 to 7.94,,10000 to 51300,63.1 to 316,1.38 to 7.94,,1.38 to 7.94,,22.4 to 1000,,
"C[C@@H]1CN(CC(=O)N2CC(C)(C)c3[nH]c(=O)c(Cc4ccc(F)cc4)cc32)[C@@H](CN2CCO[C@@H](C(=O)NCc3ccc(CNC(=O)[C@H]4CN(C[C@H]5CN[C@H](C)CN5CC(=O)N5CC(C)(C)c6[nH]c(=O)c(Cc7ccc(F)cc7)cc65)CCO4)cc3)C2)CN1 [Example 111, (2R,2′R)-N,N′-(1,4-phenylenebis(methylene))bis(4-(((2R,5R)-1-(2-(6-(4-fluorobenzyl)-3,3-dimethyl-5-oxo-2,3,4,5-tetrahydro-1H-pyrrolo[3,2-b]pyridin-1-yl)-2-oxoethyl)-5-methylpiperazin-2-yl)methyl)morpholine-2-carboxamide)]",3160 to 10000,7.94 to 15.8,"+++ (10,000>FS>1,000)",10000 to 51300,12.6 to 63.1,7.94 to 15.8,"+++ (10,000>FS>1,000)",31.6 to 501,"+++ (10,000>FS>1,000)",3160 to 10000,,
"C[C@@H]1CN(CC(=O)N2CC(C)(C)c3[nH]c(=O)c(Cc4ccc(F)cc4)cc32)[C@@H](CN2CCO[C@H](COCc3cccc(COC[C@@H]4CN(C[C@H]5CN[C@H](C)CN5CC(=O)N5CC(C)(C)c6[nH]c(=O)c(Cc7ccc(F)cc7)cc65)CCO4)c3)C2)CN1 [Example 80, 1,1′-(2,2′-((3R,3′R,6R,6′R)-(((2S,2'S)-(((1,3-phenylenebis(methylene))bis(oxy))bis(methylene))bis(morpholine-2,4-diyl))bis(methylene))bis(3-methylpiperazine-6,1-diyl))bis(acetyl))bis(6-(4-fluorobenzyl)-3,3-dimethyl-1,2,3,4-tetrahydro-5H-pyrrolo[3,2-b]pyridin-5-one)]",1000 to 3160,1.38 to 7.94,"+++ (10,000>FS>1,000)",10000 to 51300,0.49 to 12.6,1.38 to 7.94,"+++ (10,000>FS>1,000)",1.38 to 7.94,"++++ (FS>10,000)",3160 to 10000,,
"Cc1c(OC[C@@H]2CN(C[C@H]3CN[C@H](C)CN3CC(=O)N3CC(C)(C)c4[nH]c(=O)c(Cc5ccc(F)cc5)cc43)CCO2)cccc1OC[C@@H]1CN(C[C@H]2CN[C@H](C)CN2CC(=O)N2CC(C)(C)c3[nH]c(=O)c(Cc4ccc(F)cc4)cc32)CCO1 [Example 79, 1,1′-(2,2′-((3R,3′R,6R,6′R)-(((2S,2'S)-(((2-methyl-1,3-phenylene)bis(oxy))bis(methylene))bis(morpholine-2,4-diyl))bis(methylene))bis(3-methylpiperazine-6,1-diyl))bis(acetyl))bis(6-(4-fluorobenzyl)-3,3-dimethyl-1,2,3,4-tetrahydro-5H-pyrrolo[3,2-b]pyridin-5-one)]",1000 to 3160,1.38 to 7.94,"+++ (10,000>FS>1,000)",10000 to 51300,0.49 to 12.6,1.38 to 7.94,"+++ (10,000>FS>1,000)",7.94 to 15.8,"++++ (FS>10,000)",3160 to 10000,,
"C[C@@H]1CN(CC(=O)N2CC(C)(C)c3[nH]c(=O)c(Cc4ccc(F)cc4)cc32)[C@@H](CN2CCC(CNC(=O)c3ccc(C(=O)NCC4CCN(C[C@H]5CN[C@H](C)CN5CC(=O)N5CC(C)(C)c6[nH]c(=O)c(Cc7ccc(F)cc7)cc65)CC4)cc3)CC2)CN1 [Example 101, N^1,N^4-bis((1-(((2R,5R)-1-(2-(6-(4-fluorobenzyl)-3,3-dimethyl-5-oxo-2,3,4,5-tetrahydro-1H-pyrrolo[3,2-b]pyridin-1-yl)-2-oxoethyl)-5-methylpiperazin-2-yl)methyl)piperidin-4-yl)methyl)terephthalamide]",3160 to 10000,1.38 to 7.94,"+++ (10,000>FS>1,000)",10000 to 51300,63.1 to 316,1.38 to 7.94,"++++ (FS>10,000)",7.94 to 15.8,"++++ (FS>10,000)",3160 to 10000,,
C[C@@H]1CN(CC(=O)N2CC(C)(C)c3[nH]c(=O)c(Cc4ccc(F)cc4)cc32)[C@@H](CN2CCN(CCc3cn(CCCC(=O)N4CCN(C[C@H]5CN[C@H](C)CN5CC(=O)N5CC(C)(C)c6[nH]c(=O)c(Cc7ccc(F)cc7)cc65)[C@H](C)C4)nn3)C[C@H]2C)CN1 [Compound 157],1000 to 3160,7.94 to 15.8,"++ (1,000>FS>100)",,63.1 to 316,7.94 to 15.8,"++ (1,000>FS>100)",15.8 to 31.6,"++++ (FS>10,000)",22.4 to 1000,10000 to 51300,
"C[C@@H]1CN(CC(=O)N2CC(C)(C)c3[nH]c(=O)c(Cc4ccc(F)cc4)cc32)[C@@H](CN2CCO[C@H](COc3cccc(OC[C@@H]4CN(C[C@H]5CN[C@H](C)CN5CC(=O)N5CC(C)(C)c6[nH]c(=O)c(Cc7ccc(F)cc7)cc65)CCO4)c3)C2)CN1 [Example 69, 1,1′-(2,2′-((3R,3′R,6R,6′R)-(((2S,2'S)-((1,3-phenylenebis(oxy))bis(methylene))bis(morpholine-2,4-diyl))bis(methylene))bis(3-methylpiperazine-6,1-diyl))bis(acetyl))bis(6-(4-fluorobenzyl)-3,3-dimethyl-1,2,3,4-tetrahydro-5H-pyrrolo[3,2-b]pyridin-5-one)]",1000 to 3160,7.94 to 15.8,,,0.49 to 12.6,7.94 to 15.8,,15.8 to 31.6,,1000 to 3160,,10000 to 51300
